Biological target: T1, androgen receptor (Homo sapiens, UniProt P10275)
T1 construct: expressed in transfected cells; host or cells: 293 cells
T1 sequence (P10275 1-920): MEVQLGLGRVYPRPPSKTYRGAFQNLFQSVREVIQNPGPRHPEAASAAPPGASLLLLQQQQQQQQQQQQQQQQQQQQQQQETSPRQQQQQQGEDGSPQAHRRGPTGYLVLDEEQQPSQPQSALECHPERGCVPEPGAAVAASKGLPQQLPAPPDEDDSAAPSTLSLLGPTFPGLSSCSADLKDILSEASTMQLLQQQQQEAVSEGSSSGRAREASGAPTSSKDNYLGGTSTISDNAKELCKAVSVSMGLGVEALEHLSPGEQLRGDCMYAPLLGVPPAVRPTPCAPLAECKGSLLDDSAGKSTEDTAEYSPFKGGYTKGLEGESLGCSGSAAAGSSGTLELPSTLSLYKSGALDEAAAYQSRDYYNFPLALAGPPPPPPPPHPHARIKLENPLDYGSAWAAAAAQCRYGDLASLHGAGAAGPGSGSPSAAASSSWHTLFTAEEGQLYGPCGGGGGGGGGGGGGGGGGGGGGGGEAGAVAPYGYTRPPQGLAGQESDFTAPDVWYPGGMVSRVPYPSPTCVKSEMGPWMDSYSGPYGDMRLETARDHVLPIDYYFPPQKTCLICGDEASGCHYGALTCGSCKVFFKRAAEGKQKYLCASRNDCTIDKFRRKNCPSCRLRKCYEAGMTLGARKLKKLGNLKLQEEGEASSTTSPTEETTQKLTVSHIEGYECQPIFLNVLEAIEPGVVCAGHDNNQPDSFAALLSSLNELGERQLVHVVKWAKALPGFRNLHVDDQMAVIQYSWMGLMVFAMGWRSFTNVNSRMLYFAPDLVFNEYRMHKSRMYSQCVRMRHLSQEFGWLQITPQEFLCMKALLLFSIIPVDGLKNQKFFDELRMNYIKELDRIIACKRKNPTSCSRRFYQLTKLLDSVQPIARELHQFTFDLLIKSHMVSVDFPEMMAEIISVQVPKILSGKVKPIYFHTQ
T1 sequence (Q14192 1-279 partner): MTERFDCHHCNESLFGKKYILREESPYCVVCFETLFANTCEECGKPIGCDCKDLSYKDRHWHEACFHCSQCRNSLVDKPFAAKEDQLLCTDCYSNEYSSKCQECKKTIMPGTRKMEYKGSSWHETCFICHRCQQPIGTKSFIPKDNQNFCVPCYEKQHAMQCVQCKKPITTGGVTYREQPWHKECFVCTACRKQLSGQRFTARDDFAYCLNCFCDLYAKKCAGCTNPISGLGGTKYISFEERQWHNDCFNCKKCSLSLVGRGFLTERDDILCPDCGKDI
Experiment: androgen receptor co-activation, MMTV-LUC or proteasin-Luc reporter, transient transfection
Assay type: cell-based
Settings: 293 cells; androgen receptor-expression-plasmid co-transfected

SMILES: C[C@]1(O)CC[C@H]2[C@@H]3CCC4=CC(=O)CCC4=C3C=C[C@@]21C [R1881, reference compound]
- transactivation of the reporter gene: transactivated
